Read-outs that look alike come from different tables or passages of the source.
Legend:
S1P1 = target: T1, S1P1 (Homo sapiens, UniProt P21453); assay: Tango β-arrestin recruitment assay in U2OS cells (Assay 2b); assay type: cell-based
T1 construct: host or cells: U2OS
Procedure, shortened: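 In this agonist-mode Tango assay, U2OS cells carrying S1P1 and the reporter were serum-starved 48 h, then exposed overnight at 37 °C to compound (10 points, 3-fold, top 1 μM, 1% DMSO). β-Lactamase F460/F530 ratio was normalized to 1 μM S1P, and EC50 was fitted.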

circulating lymphocytes = assay: Lymphocyte PD assay in rats; assay type: in vivo, rat; conditions: 24 hours after oral single dose at 3 mg/kg, Female CD rats (Sprague Dawley), compared to vehicle-only group
Procedure: Suppression of circulating lymphocytes was assessed as a PD endpoint in jugular vein canulated Sprague Dawely (SD) rats 6-8 weeks of age and weighing approximately 200 g (Taconic Farms, Germantown, N.Y.). Prior initiating a study, rats were acclimated to the vivarium facility (12 h light cycle, 12 h dark cycle) for a minimum of 2 days. During a study, animals were provided food and water ad libitum and housed in a room conditioned at 70-75° F. and 60% relative humidity. All animals were examined daily for health assessment.
The Compound of the Invention were formulated and animals was dosed at a volume of 4 mL/kg. At indicated timepoints, whole blood was collected via jugular vein canulas into EDTA-coated tubes and hematology analysis was performed on an Abbott Cell-Dyn 3700 hematology analyzer. Readouts included white blood cells (total, differential, and % of total), neutrophils, lymphocytes, monocytes, eosinophils, basophils, RBC, HGB, hematocrit, mean corpuscule volume, mean corpuscule HGB concentration, RBC distribution width, platelets, and mean platelet volume.

[1] = target: T2, hS1PR5 (hEdg8) membrane protein (Homo sapiens, UniProt Q9H228); assay: hS1P5R GTPγS binding assay (Assay 4); assay type: biochemical
T2 construct: expressed in transfected cells; host or cells: CHO
T2 sequence (Q9H228 whole entry): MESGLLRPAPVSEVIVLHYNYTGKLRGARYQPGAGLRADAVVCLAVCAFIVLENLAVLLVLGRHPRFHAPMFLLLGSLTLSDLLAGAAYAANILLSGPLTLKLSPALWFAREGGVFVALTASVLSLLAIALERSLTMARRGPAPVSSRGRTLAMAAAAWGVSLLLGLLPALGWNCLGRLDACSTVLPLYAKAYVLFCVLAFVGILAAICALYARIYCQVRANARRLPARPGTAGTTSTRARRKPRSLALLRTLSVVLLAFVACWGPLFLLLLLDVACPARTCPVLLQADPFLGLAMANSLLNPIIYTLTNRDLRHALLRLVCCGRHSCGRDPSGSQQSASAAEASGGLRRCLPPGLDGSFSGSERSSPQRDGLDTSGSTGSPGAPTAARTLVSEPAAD
Procedure, shortened: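 Membranes (5 μg) from CHO cells expressing hS1PR5, incubated 1 h at room temperature with 30 μM GDP, 0.1 nM [35S]GTPγS, 0.25% fatty acid free BSA and serially diluted compound in pH 7.9 Tris buffer with MgCl2. WGA SPA beads added for another 1 h, then bound [35S]GTPγS counted by scintillation.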

[2] = target: T3, hS1P1R (hEdg1) membrane protein (Homo sapiens, UniProt P21453); assay: hS1P1R GTPγS binding assay (Assay 3a); assay type: biochemical
T3 construct: purchased Lonza
T3 sequence (P21453 whole entry): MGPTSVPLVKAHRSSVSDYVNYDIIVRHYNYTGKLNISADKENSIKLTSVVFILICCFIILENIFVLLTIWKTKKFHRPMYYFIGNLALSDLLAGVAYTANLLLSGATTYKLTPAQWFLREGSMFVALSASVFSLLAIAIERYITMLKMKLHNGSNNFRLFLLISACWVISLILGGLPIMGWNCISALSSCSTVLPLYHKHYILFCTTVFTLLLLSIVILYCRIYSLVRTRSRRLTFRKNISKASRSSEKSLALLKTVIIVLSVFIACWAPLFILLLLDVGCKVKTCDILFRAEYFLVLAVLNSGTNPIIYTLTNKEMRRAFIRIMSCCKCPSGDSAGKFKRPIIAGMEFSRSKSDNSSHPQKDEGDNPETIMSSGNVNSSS
Procedure, shortened: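 Membranes (4 μg) expressing hS1P1R incubated 1 h at room temperature with 30 μM GDP, 0.1 nM [^35S]GTPγS, 0.25% fatty acid free BSA and serially diluted agonist in Tris-HCl pH 7.9/NaCl/MgCl2/EGTA buffer. Bound [^35S]GTPγS captured on WGA SPA beads (further 1 h) and counted.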

S1P3 = target: T4, S1P3 (Homo sapiens, UniProt Q99500); assay: S1P3 Tango β-arrestin recruitment assay in HEK293 cells (Assay 5); assay type: cell-based; conditions: read-out: Assay 5 EC50
T4 construct: host or cells: HEK293 (transient transfection)
T4 sequence (P32121 whole entry): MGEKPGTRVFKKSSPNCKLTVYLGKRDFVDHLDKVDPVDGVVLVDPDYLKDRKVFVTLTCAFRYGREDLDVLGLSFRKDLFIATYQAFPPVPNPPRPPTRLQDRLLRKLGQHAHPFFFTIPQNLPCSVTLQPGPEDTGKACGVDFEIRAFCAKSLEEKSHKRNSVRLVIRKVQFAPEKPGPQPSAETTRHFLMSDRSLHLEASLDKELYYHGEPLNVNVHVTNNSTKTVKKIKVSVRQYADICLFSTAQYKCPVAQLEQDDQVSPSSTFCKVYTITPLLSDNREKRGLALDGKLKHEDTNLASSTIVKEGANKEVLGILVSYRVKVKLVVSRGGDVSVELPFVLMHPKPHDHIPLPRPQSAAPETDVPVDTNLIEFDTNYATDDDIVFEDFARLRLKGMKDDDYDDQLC
T4 sequence (Q99500 whole entry): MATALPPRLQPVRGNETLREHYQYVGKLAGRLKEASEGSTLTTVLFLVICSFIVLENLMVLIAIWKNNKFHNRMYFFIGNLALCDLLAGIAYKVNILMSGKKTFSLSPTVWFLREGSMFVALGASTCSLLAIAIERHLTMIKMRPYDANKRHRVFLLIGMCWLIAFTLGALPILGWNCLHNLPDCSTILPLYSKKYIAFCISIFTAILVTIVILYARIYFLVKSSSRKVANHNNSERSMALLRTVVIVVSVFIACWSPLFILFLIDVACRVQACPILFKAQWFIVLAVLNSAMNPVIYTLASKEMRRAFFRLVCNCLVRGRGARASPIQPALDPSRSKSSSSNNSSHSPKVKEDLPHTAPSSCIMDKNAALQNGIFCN
Procedure, shortened: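 HEK293 cells transiently expressing S1P3 fused via TEV-cleavable linker to tTA, with β-arrestin2–TEV, treated 16-18 h at 37 °C with compounds (top 10 μM, 10-point 3-fold, 1% DMSO). Luciferase reporter luminescence normalised to DMSO background and 5 μM S1P control as percent activity; EC50 from concentration-response curves.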

T1 sequence (P32121 whole entry): as the sequence (P32121 whole entry) above
T1 sequence (P21453 whole entry): as the sequence (P21453 whole entry) above

Row | Compound | EC50 (S1P1; read-out: Assay 2b EC50) [µM] | Lymphocyte Counts (p < 0.05) (circulating lymphocytes) [%] | EC50 [1] [µM] | EC50 [2] [µM] | EC50 (S1P3) [µM] | EC50 (S1P1; * = rEC50 measured rather than EC50, read-out: Assay 2b rEC50 (relative EC50, cells marked *)) [µM]
1 | CC(C)Oc1ccc(-c2nnc(-c3cc(F)c(OC[C@H](N)CO)cc3Cl)s2)cc1Cl [Entry 1, (2R)-2-amino-3-{[5-chloro-4-(5-{3-chloro-4-[(1-methylethyl)oxy]phenyl}-1,3,4-thiadiazol-2-yl)-2-fluorophenyl]oxy}propan-1-ol] | 0.01 to 0.05 | −80 | 0.01 to 0.05 | 0.01 to 0.05 | > 10 | –
2 | CC(C)Oc1ccc(-c2nnc(-c3cc(F)c(OC[C@H](N)CO)cc3Cl)s2)cc1Br [Entry 2, (2R)-2-amino-3-{[4-(5-{3-bromo-4-[(1-methylethyl)oxy]phenyl}-1,3,4-thiadiazol-2-yl)-5-chloro-2-fluorophenyl]oxy}propan-1-ol] | 0.01 to 0.05 | −93 | 0.01 to 0.05 | ≤ 0.01 | > 10 | –
3 | CC(C)Oc1ccc(-c2nnc(-c3cc(F)c(OC[C@H](N)CO)cc3Cl)s2)cc1C#N [Entry 37, 5-[5-(4-{[(2R)-2-amino-3-hydroxypropyl]oxy}-2-chloro-5-fluorophenyl)-1,3,4-thiadiazol-2-yl]-2-[(1-methylethyl)oxy]benzonitrile] | ≤ 0.01 | −93 | 0.01 to 0.05 | ≤ 0.01 | > 10 | –
4 | CC(C)Nc1ccc(-c2nnc(-c3cc(F)c(OCC(N)CO)cc3Cl)s2)cn1 (stereo not shown) [Entry 44, 2-amino-3-{[5-chloro-2-fluoro-4-(5-{6-[(1-methylethyl)amino]pyridin-3-yl}-1,3,4-thiadiazol-2-yl)phenyl]oxy}propan-1-ol] | ≤ 0.01 | −94 | 0.25 to 2.8 | 0.25 to 2.8 | > 10 | –
5 | Cc1cc(-c2nnc(-c3cc(F)c(OC[C@H](N)[C@@H](C)O)cc3Cl)s2)cc(NC(C)C)n1 [Entry 62, (2R,3S)-3-amino-4-{[5-chloro-2-fluoro-4-(5-{2-methyl-6-[(1-methylethyl)amino]pyridin-4-yl}-1,3,4-thiadiazol-2-yl)phenyl]oxy}butan-2-ol] | ≤ 0.01 | −79 | 0.01 to 0.05 | ≤ 0.01 | > 10 | –
6 | CC(C)Oc1ccc(-c2nnc(-c3cc(F)c(OC[C@H](N)[C@H](C)O)cc3Cl)s2)cc1Cl [Entry 72, (2S,3S)-3-amino-4-{[5-chloro-4-(5-{3-chloro-4-[(1-methylethyl)oxy]phenyl}-1,3,4-thiadiazol-2-yl)-2-fluorophenyl]oxy}butan-2-ol] | ≤ 0.01 | −86 | 0.05 to 0.25 | 0.01 to 0.05 | > 10 | –
7 | CC(C)Oc1ccc(-c2nnc(-c3cc(F)c(OC[C@H](N)[C@@H](C)O)cc3Cl)s2)cc1Cl [Entry 73, (2R,3S)-3-amino-4-{[5-chloro-4-(5-{3-chloro-4-[(1-methylethyl)oxy]phenyl}-1,3,4-thiadiazol-2-yl)-2-fluorophenyl]oxy}butan-2-ol] | ≤ 0.01 | −89 | 0.01 to 0.05 | ≤ 0.01 | > 10 | –
8 | CC(C)Nc1ccc(-c2nnc(-c3cc(F)c(OC[C@@H](N)CO)cc3Cl)s2)cn1 [Entry 77, (2S)-2-amino-3-{[5-chloro-2-fluoro-4-(5-{6-[(1-methylethyl)amino]pyridin-3-yl}-1,3,4-thiadiazol-2-yl)phenyl]oxy}propan-1-ol] | ≤ 0.01 | −94 | 0.25 to 2.8 | 0.25 to 2.8 | > 10 | –
9 | (1R,2R)-2-amino-3-{[5-chloro-2-fluoro- 4-(5-{6-[(1-methylethyl)amino]pyridin- 3-yl}-1,3,4-thiadiazol-2-yl)phenyl]oxy}- 1-methylpropyl dihydrogen phosphate [Entry 102] | – | – | ≤ 0.01 | ≤ 0.01 | ≤ 0.25 | ≤ 0.01
10 | (1R,2S)-2-amino-3-{[5-chloro-2-fluoro- 4-(5-{3-methyl-4-[(1- methylethyl)oxy]phenyl}-1,3,4- thiadiazol-2-yl)phenyl]oxy}-1- methylpropyl dihydrogen phosphate [Entry 99] | ≤ 0.01 | – | 0.01 to 0.05 | ≤ 0.01 | ≤ 0.25 | –
11 | (1S,2R)-2-amino-3-{[5-chloro-2-fluoro- 4-(5-{2-methyl-6-[(1- methylethyl)amino]pyridin-4-yl}-1,3,4- thiadiazol-2-yl)phenyl]oxy}-1- methylpropyl dihydrogen phosphate [Entry 101] | ≤ 0.01 | – | ≤ 0.01 | ≤ 0.01 | > 0.25 | –

From patent US20100249071A1, “Modulators of S1P and Methods of Making And Using” (Exelixis, Inc., priority 2009, published 2010)
